In PubChem BioAssay AID2060888 (Molecular Pharmacology Branch, DTP, NCI, 2025):
Where “and” joins values, the source holds several entries; their conditions need not be identical. Identical values can stand only once.

Test system: 695427-040-R-J1-PDC complex spheroid viability
Assay: Anticancer human tumor 695427-040-R-J1-PDC patient-derived colon adenocarcinoma cell line growth inhibition [RAS]
Conditions: for viability, T/C: stronger effect = lower value; active = viability on the fitted dose curve at most 10% of control; inactive = the rest
Outline: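 Multi-cell-type spheroids: tumor cells plus HUVEC endothelial cells and mesenchymal stem cells. RAS-pathway inhibitors were combined with targeted agents, each dosed in half-log steps down from clinical Cmax, or from 10 microM when Cmax was unknown.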

[1] = curve of first compound, second compound 0.000949 µM
[2] = curve of first compound, second compound 0.003 µM
[3] = curve of first compound, second compound 0.00949 µM
[4] = curve of first compound, second compound 0.03 µM
[5] = curve of first compound, second compound 0.0949 µM
[6] = curve of first compound, second compound 0.3 µM
[7] = second compound 0.000949 µM, first compound 0.0316 µM
[8] = second compound 0.000949 µM, first compound 0.1 µM
[9] = second compound 0.000949 µM, first compound 0.316 µM
[10] = second compound 0.000949 µM, first compound 1 µM
[11] = second compound 0.003 µM, first compound 0.0316 µM
[12] = second compound 0.003 µM, first compound 0.1 µM
[13] = second compound 0.003 µM, first compound 0.316 µM
[14] = second compound 0.003 µM, first compound 1 µM
[15] = second compound 0.00949 µM, first compound 0.0316 µM
[16] = second compound 0.00949 µM, first compound 0.1 µM
[17] = second compound 0.00949 µM, first compound 0.316 µM
[18] = second compound 0.00949 µM, first compound 1 µM
[19] = second compound 0.03 µM, first compound 0.0316 µM
[20] = second compound 0.03 µM, first compound 0.1 µM
[21] = second compound 0.03 µM, first compound 0.316 µM
[22] = second compound 0.03 µM, first compound 1 µM
[23] = second compound 0.0949 µM, first compound 0.0316 µM
[24] = second compound 0.0949 µM, first compound 0.1 µM
[25] = second compound 0.0949 µM, first compound 0.316 µM
[26] = second compound 0.0949 µM, first compound 1 µM
[27] = second compound 0.3 µM, first compound 0.0316 µM
[28] = second compound 0.3 µM, first compound 0.1 µM
[29] = second compound 0.3 µM, first compound 0.316 µM
[30] = second compound 0.3 µM, first compound 1 µM
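Note: viability read after seven days of drug exposure.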
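Throughout, for viability, T/C: 100% = DMSO vehicle control viability.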

CC1(C)CCC(Nc2ncc(C(F)(F)F)c(-c3c[nH]c4c(P(C)(C)=O)c(C#N)ccc34)n2)CN1 (stereo unspecified) + CCn1c(-c2cccnc2C(C)OC)c2c3cc(ccc31)N1CCOC(CC(NC(=O)C(C(C)C)N(C)C(=O)C3(F)CCN(C(=O)C#CC(C)(C)N(C)C)CC3)C(=O)N3CCCC(N3)C(=O)OCC(C)(C)C2)C1
inactive: viability, T/C (second compound 0.000949 µM, first compound 0.000949 µM) 85% | viability, T/C (second compound 0.000949 µM, first compound 0.003 µM) 116% | viability, T/C (second compound 0.000949 µM, first compound 0.00949 µM) 95.5% | viability, T/C (second compound 0.000949 µM, first compound 0.03 µM) 100% | viability, T/C (second compound 0.000949 µM, first compound 0.0949 µM) 85.6% | viability, T/C (second compound 0.000949 µM, first compound 0.3 µM) 90.6% | viability, T/C (second compound 0.003 µM, first compound 0.000949 µM) 104% | viability, T/C (second compound 0.003 µM, first compound 0.003 µM) 105% | viability, T/C (second compound 0.003 µM, first compound 0.00949 µM) 81% | viability, T/C (second compound 0.003 µM, first compound 0.03 µM) 103% | viability, T/C (second compound 0.003 µM, first compound 0.0949 µM) 86.9% | viability, T/C (second compound 0.003 µM, first compound 0.3 µM) 55.1% | viability, T/C (second compound 0.00949 µM, first compound 0.000949 µM) 108% | viability, T/C (second compound 0.00949 µM, first compound 0.003 µM) 104% | viability, T/C (second compound 0.00949 µM, first compound 0.00949 µM) 98.3% | viability, T/C (second compound 0.00949 µM, first compound 0.03 µM) 113% | viability, T/C (second compound 0.00949 µM, first compound 0.0949 µM) 103% | viability, T/C (second compound 0.00949 µM, first compound 0.3 µM) 65.4% | viability, T/C (second compound 0.03 µM, first compound 0.000949 µM) 101% | viability, T/C (second compound 0.03 µM, first compound 0.003 µM) 80.8% | viability, T/C (second compound 0.03 µM, first compound 0.00949 µM) 89.9% | viability, T/C (second compound 0.03 µM, first compound 0.03 µM) 90.5% | viability, T/C (second compound 0.03 µM, first compound 0.0949 µM) 97.5% | viability, T/C (second compound 0.03 µM, first compound 0.3 µM) 90.1% | viability, T/C (second compound 0.0949 µM, first compound 0.000949 µM) 105% | viability, T/C (second compound 0.0949 µM, first compound 0.003 µM) 78.2% | viability, T/C (second compound 0.0949 µM, first compound 0.00949 µM) 107% | viability, T/C (second compound 0.0949 µM, first compound 0.03 µM) 98% | viability, T/C (second compound 0.0949 µM, first compound 0.0949 µM) 93.3% | viability, T/C (second compound 0.0949 µM, first compound 0.3 µM) 80.2% | viability, T/C (second compound 0.3 µM, first compound 0.000949 µM) 75.7% | viability, T/C (second compound 0.3 µM, first compound 0.003 µM) 93.8% | viability, T/C (second compound 0.3 µM, first compound 0.00949 µM) 84.3% | viability, T/C (second compound 0.3 µM, first compound 0.03 µM) 92.1% | viability, T/C (second compound 0.3 µM, first compound 0.0949 µM) 85.7% | viability, T/C (second compound 0.3 µM, first compound 0.3 µM) 78.1%
> 0.3 µM: IC50 [1] | IC50 [2] | IC50 [3] | IC50 [4] | IC50 [5] | IC50 [6]

CCN1CCN(Cc2ccc(Nc3ncc(F)c(-c4cc(F)c5nc(C)n(C(C)C)c5c4)n3)nc2)CC1 + CCn1c(-c2cc(N3CCN(C)CC3)cnc2C(C)OC)c2c3cc(ccc31)-c1csc(n1)CC(NC(=O)C1CC1C)C(=O)N1CCCC(N1)C(=O)OCC(C)(C)C2
inactive: viability, T/C (second compound 0.000949 µM, first compound 0.00316 µM) 94.2% | viability, T/C (second compound 0.000949 µM, first compound 0.01 µM) 87.4% | viability, T/C [7] 95.4% | viability, T/C [8] 94.4% | viability, T/C [9] 92.8% | viability, T/C [10] 59.9% | viability, T/C (second compound 0.003 µM, first compound 0.00316 µM) 97.9% | viability, T/C (second compound 0.003 µM, first compound 0.01 µM) 105% | viability, T/C [11] 95.7% | viability, T/C [12] 85.2% | viability, T/C [13] 83.3% | viability, T/C [14] 59.2% | viability, T/C (second compound 0.00949 µM, first compound 0.00316 µM) 105% | viability, T/C (second compound 0.00949 µM, first compound 0.01 µM) 74.5% | viability, T/C [15] 84.2% | viability, T/C [16] 67.2% | viability, T/C [17] 67.8% | viability, T/C [18] 49.6% | viability, T/C (second compound 0.03 µM, first compound 0.00316 µM) 65% | viability, T/C (second compound 0.03 µM, first compound 0.01 µM) 62.9% | viability, T/C [19] 45.4% | viability, T/C [20] 53.3% | viability, T/C [21] 47.6% | viability, T/C [22] 39.7% | viability, T/C (second compound 0.0949 µM, first compound 0.00316 µM) 51.9% | viability, T/C (second compound 0.0949 µM, first compound 0.01 µM) 41.2% | viability, T/C [23] 50.4% | viability, T/C [24] 37% | viability, T/C [25] 44.4% | viability, T/C [26] 36.5% | viability, T/C (second compound 0.3 µM, first compound 0.00316 µM) 37.4% | viability, T/C (second compound 0.3 µM, first compound 0.01 µM) 41.4% | viability, T/C [27] 38.6% | viability, T/C [28] 38.8% | viability, T/C [29] 42.6% | viability, T/C [30] 41.9%
> 1 µM: IC50 [1] | IC50 [2] | IC50 [3]
0.0753 µM: IC50 [4]
< 0.00316 µM: IC50 [5] | IC50 [6]

CC(=O)OC12COC1CC(O)C1(C)C(=O)C(O)C3=C(C)C(OC(=O)C(O)C(NC(=O)OC(C)(C)C)c4ccccc4)CC(O)(C(OC(=O)c4ccccc4)C21)C3(C)C (stereo unspecified) + CCn1c(-c2cccnc2C(C)OC)c2c3cc(ccc31)N1CCOC(CC(NC(=O)C(C(C)C)N(C)C(=O)C3(F)CCN(C(=O)C#CC(C)(C)N(C)C)CC3)C(=O)N3CCCC(N3)C(=O)OCC(C)(C)C2)C1
> 10 µM: IC50 [1] | IC50 [2] | IC50 [3] | IC50 [4] | IC50 [5] | IC50 [6]
inactive: viability, T/C [7] 81% | viability, T/C [8] 73.9% | viability, T/C [9] 76% | viability, T/C [10] 61.4% | viability, T/C (second compound 0.000949 µM, first compound 3.16 µM) 65.3% | viability, T/C (second compound 0.000949 µM, first compound 10 µM) 73.5% | viability, T/C [11] 95.7% | viability, T/C [12] 77.1% | viability, T/C [13] 61.1% | viability, T/C [14] 64.1% | viability, T/C (second compound 0.003 µM, first compound 3.16 µM) 70.8% | viability, T/C (second compound 0.003 µM, first compound 10 µM) 66.9% | viability, T/C [15] 107% | viability, T/C [16] 61% | viability, T/C [17] 67.4% | viability, T/C [18] 69.3% | viability, T/C (second compound 0.00949 µM, first compound 3.16 µM) 78.5% | viability, T/C (second compound 0.00949 µM, first compound 10 µM) 69% | viability, T/C [19] 83.6% | viability, T/C [20] 71.9% | viability, T/C [21] 61% | viability, T/C [22] 68.4% | viability, T/C (second compound 0.03 µM, first compound 3.16 µM) 78.8% | viability, T/C (second compound 0.03 µM, first compound 10 µM) 77% | viability, T/C [23] 77.7% | viability, T/C [24] 51.4% | viability, T/C [25] 67.1% | viability, T/C [26] 57.4% | viability, T/C (second compound 0.0949 µM, first compound 3.16 µM) 76% | viability, T/C (second compound 0.0949 µM, first compound 10 µM) 82.4% | viability, T/C [27] 76.8% | viability, T/C [28] 60.1% | viability, T/C [29] 68.1% | viability, T/C [30] 51.7% | viability, T/C (second compound 0.3 µM, first compound 3.16 µM) 43.9% | viability, T/C (second compound 0.3 µM, first compound 10 µM) 71.1%

Nc1ccn(C2OC(CO)C(O)C2(F)F)c(=O)n1 (stereo unspecified)
> 1 µM: IC50 (curve of compound)
inactive: viability, T/C (compound 0.00316 µM) 92.8% [middle of 4 runs] | viability, T/C (compound 0.0316 µM) 78.1% [middle of 4 runs] | viability, T/C (compound 0.1 µM) 78.2% [middle of 4 runs] | viability, T/C (compound 0.316 µM) 72% [middle of 4 runs] | viability, T/C (compound 1 µM) 65% [middle of 4 runs]

CC(C)NCC(C(=O)N1CCN(c2ncnc3c2C(C)CC3O)CC1)c1ccc(Cl)cc1 (stereo unspecified)
> 10 µM and 10 µM: IC50 (curve of compound)
inactive: viability, T/C (compound 0.0316 µM) 102% [middle of 4 runs] | viability, T/C (compound 0.316 µM) 96.3% [middle of 4 runs] | viability, T/C (compound 1 µM) 88.8% [middle of 4 runs]
